This passage reports TGI results from PubChem BioAssay (NCI).

Common to all, as to test: NCI anticancer screen, dose series, 48 h
In assay [1] the test system is T-47D breast.
The test system of assay [2] is HOP-62 NSCLC.
Assay [3] relates to PC-3 prostate.
In assay [4] the test system is SF-295 CNS.
In assay [5] the test system is HCT-15 colon.
For assay [6], the system named is TK-10 renal.
In assay [7] the test system is DU-145 prostate.
The test system of assay [8] is RXF 393 renal.
Assay [9] relates to MALME-3M melanoma.
Assay [10] deals with NCI-H522 lung.
Assay [11] relates to CCRF-CEM leukemia.
The subject of assay [12] is OVCAR-4 ovarian.
Assay [13] relates to SN12C renal.
Assay [14] has as its system NCI-H23 lung.
Assay [15] concerns MDA-MB-435.
Assay [16] concerns MDA-MB-231 breast.
Assay [17] deals with UACC-62 melanoma.
Assay [18] concerns ACHN renal.
In assay [19] the test system is SW-620 colon.
Assay [20] concerns LOX IMVI melanoma.

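Assay format: 96-well plates, 48-hour exposure. TGI is the concentration that stops growth completely.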 Some results are limits rather than exact numbers.

Turning to `CCCCN1C(=O)CS/C1=N/Nc1nc2c([nH]1)c(=O)n(C)c(=O)n2C`, the TGI was more than 100 µM in [1]; more than 100 µM in assay [2]; more than 100 µM in assay [3]; 53.1 µM in [4]; more than 100 µM in assay [5]; more than 100 µM in assay [6]. Further, the TGI in assay [7] was more than 100 µM; in [8], more than 100 µM; in assay [9], more than 100 µM; in assay [10], more than 100 µM; in assay [11], 54.8 µM; in [12] it was 71.4 µM. Moreover, the TGI in [13] was more than 100 µM; in assay [14] it was more than 100 µM; in assay [15], 40.7 µM; in assay [16] it was more than 100 µM; in assay [17] it was more than 100 µM; in [18], more than 100 µM.

Take `COc1ccc(-c2nc3cc(C(F)(F)F)ccc3n2CC2CCCN3CCCCC23)cc1` (stereo not given): the TGI is 48.2 µM in assay [1]; 38.5 µM in assay [2]; 26.5 µM in assay [3]; 36.6 µM in assay [4]; 29.1 µM in assay [5]; 30.2 µM in [6]. Also, the TGI worked out at 30.8 µM in assay [7]; 33.8 µM in assay [8]; 29.2 µM in assay [10]; 31.4 µM in assay [11]; 28.5 µM in [19]; 39.7 µM in assay [12]. The TGI in assay [14] worked out at 29 µM; in assay [15], 34.3 µM; in assay [16], 27.7 µM; in [18], 29 µM; in assay [20], 28.3 µM.

Regarding `CCCCCCCCCCCCCCCCOc1ccc(/C=C/C2=[N+](CCCl)CCO2)cc1`, the TGI in [1], in assay [2], in assay [3], in [4], in [5] and in assay [6] was more than 100 µM throughout. Also, the TGI in assay [7], in assay [9], in [10], in assay [11], in [19] and in assay [12] was more than 100 µM each time. In addition, the TGI in [13] is more than 100 µM; in assay [15] it was more than 100 µM; in assay [16], 83.5 µM; in assay [17] it was more than 100 µM; in [18] it was more than 100 µM; in assay [20], more than 100 µM.

Regarding `CC1CC(C(=O)OC2OC(COC3OC(CO)C(OC4OC(C)C(O)C(O)C4O)C(O)C3O)C(O)C(O)C2O)C2CCC3(C)C(=CCC4(C)C3CCC3C(C)(CO)C(O)C(O)CC34C)C2C1C` (stereo not given), the TGI is 35 µM in assay [1]; 37.2 µM in assay [2]; 84.6 µM in assay [3]; 82.8 µM in assay [4]; more than 100 µM in assay [5]; more than 100 µM in assay [6]. The TGI in assay [7] is more than 100 µM; in assay [10], 30.1 µM; in assay [11], 52.2 µM; in assay [19], 88.3 µM; in assay [12], 37.3 µM; in assay [13] it was 37 µM. The TGI was 33.3 µM in assay [14]; 34.5 µM in assay [15]; 34 µM in [16]; 32.7 µM in assay [17]; more than 10 µM in assay [18]; 58.8 µM in [20].

Turning to `O=P1(Oc2ccccc2)NCc2ncccc2O1` (stereo not given), the TGI in assay [1], in assay [2], in assay [3], in [4], in [5] and in assay [7] was more than 100 µM each time. For the same compound, the TGI in assay [8], in assay [11], in assay [19], in [12], in assay [13] and in [14] was more than 100 µM each time. Moreover, the TGI in assay [15], in assay [16], in [17], in [18] and in assay [20] was more than 100 µM in each case.

Consider `Cc1nc2ccccc2c(=O)n1/N=C/c1ccc(N(C)C)cc1`, for which the TGI in assay [1], in assay [2], in assay [3], in [4], in assay [5] and in assay [6] was more than 100 µM each time. The TGI in [7], in assay [9], in [10], in [11], in assay [19] and in [12] was more than 100 µM throughout. Further, the TGI in [13], in [14], in assay [15], in assay [16], in [17] and in assay [18] was more than 100 µM throughout. The same compound displayed a TGI in [20] of more than 100 µM.

With `CC(=O)OC1OC(c2ccoc2)C[C@@]12C1CCC3O[C@]3(C)[C@]1(C)C[C@H](OC(C)=O)[C@H]2C` (stereo not given in full), the TGI in assay [1], in assay [3], in assay [4], in assay [5], in assay [6] and in assay [7] was more than 75 µM in each case. For the same compound, the TGI in [8], in assay [10], in assay [11], in assay [19], in assay [12] and in assay [13] was more than 75 µM each time. Moreover, the TGI in [14], in [15], in [16], in assay [17], in [18] and in [20] was more than 75 µM throughout.

In the case of `O=C1C=C2CC[C@H]3[C@@H]4CC[C@H](Oc5c6ccccc6nc6ccccc56)[C@H]4CC[C@@H]3[C@H]2CC1`, the TGI in assay [1], in assay [2], in assay [3], in [4], in assay [5] and in assay [6] was more than 100 µM each time. Also, the TGI in [7] was more than 100 µM; in assay [8], 91.5 µM; in assay [11], 60.1 µM; in assay [19], more than 100 µM; in assay [12] it was more than 100 µM; in assay [13] it was more than 100 µM. The TGI in assay [14], in [15], in assay [16], in [17], in assay [18] and in [20] was more than 100 µM each time.

Take `Cc1nc2ccccc2n1Cc1nnc2n1N=C(c1ccccc1)CS2`: the TGI in assay [1] is 43.5 µM; in assay [2], more than 100 µM; in assay [3], 53.6 µM; in [4], more than 100 µM; in assay [5], more than 100 µM; in [6] it was more than 100 µM. Also, the TGI in [7] was more than 100 µM; in assay [9], more than 100 µM; in assay [10] it was 71.2 µM; in [11], more than 100 µM; in assay [19] it was more than 100 µM; in [12], more than 100 µM. Besides, the TGI in assay [13] was more than 100 µM; in [14] it was more than 100 µM; in assay [15], more than 100 µM; in [16] it was 62.9 µM; in assay [17], 99.4 µM; in [18] it was more than 100 µM.

In the case of `CCOC(=O)C1=C(C)NC(C)=C(C(=O)OCC)C1c1ccc(C)cc1`, the TGI in assay [1] is more than 100 µM; in [2], more than 100 µM; in assay [3], 66 µM; in assay [4], more than 100 µM; in [5] it was more than 100 µM; in assay [6] it was more than 100 µM. The TGI is more than 100 µM in [7]; 75.5 µM in assay [8]; 94.2 µM in [10]; more than 100 µM in [19]; more than 100 µM in assay [12]; 80.5 µM in assay [13]. Further, the TGI is more than 100 µM in [14]; more than 100 µM in assay [15]; 84.3 µM in assay [16]; more than 100 µM in assay [17]; more than 100 µM in [18]; more than 100 µM in [20].

Turning to `CC(=O)OC1[C@@H](OC(C)=O)CN(OCc2ccccc2)C[C@H]1OC(C)=O` (stereo not given in full), the TGI in assay [1], in assay [2], in assay [3], in assay [4], in assay [5] and in assay [6] was more than 100 µM in each case. Also, the TGI in assay [7], in assay [8], in assay [10], in [11], in [19] and in assay [12] was more than 100 µM throughout. Further, the TGI in assay [13], in assay [14], in [15], in assay [16], in assay [17] and in [18] was more than 100 µM in each case. Besides, in assay [20], the TGI was more than 100 µM.

Regarding `Cc1ccc(NC(=O)/C(=N\NC(N)=O)c2c(O)c3ccccc3[nH]c2=O)cc1`, the TGI in assay [1], in assay [3], in [4], in [5], in [7] and in [8] was more than 100 µM each time. Also, the TGI in assay [11], in [19], in [12], in assay [13], in assay [14] and in assay [15] was more than 100 µM in each case. Also, the TGI in assay [16], in assay [17], in assay [18] and in assay [20] was more than 100 µM in each case.

For the compound `CCn1c(=O)c2c3cc(OC(C)=O)ccc3oc2c2ccc(OC(C)=O)cc21`, the TGI is 75.4 µM in assay [1]; more than 100 µM in assay [2]; more than 100 µM in [3]; 72 µM in [4]; more than 100 µM in assay [5]; more than 100 µM in assay [6]. In addition, the TGI in assay [7], in assay [8], in assay [9], in assay [10], in assay [11] and in [19] was more than 100 µM in each case. The TGI in assay [12], in assay [13], in [14], in assay [15], in assay [16] and in assay [17] was more than 100 µM throughout. In assay [18], this compound gave a TGI of 85.9 µM.

For the compound `NC(=O)C1N=NSC1NC(=O)c1ccc([N+](=O)[O-])cc1` (stereo not given), the TGI in assay [1], in assay [2], in assay [3], in assay [4], in assay [5] and in assay [6] was more than 100 µM in each case. Moreover, the TGI in [7], in assay [8], in [9], in assay [11], in [19] and in [12] was more than 100 µM each time. Further, the TGI in [13], in [14], in [15], in assay [16], in assay [17] and in [18] was more than 100 µM throughout.

Turning to `CN(C)/C=C/c1c2c(nc3ccccc13)C(=O)c1ccccc1C2=O`, the TGI in assay [1] was determined as 5.19 µM; in assay [2] it was 1.32 µM; in assay [3] it was 3.77 µM; in assay [4] it was 2.88 µM; in assay [5], 2.71 µM; in [6], 6 µM. In addition, the TGI in assay [7] came to 2.69 µM; in assay [8], 9.83 µM; in assay [10] it was 4.61 µM; in assay [11] it was 3.36 µM; in assay [19], 5.04 µM; in assay [12], 5.42 µM. Further, the TGI in assay [13] stood at 2.84 µM; in assay [14] it was 0.882 µM; in assay [15], 0.206 µM; in assay [16], 4.26 µM; in [17], 0.739 µM; in assay [18], 3.44 µM. This compound also registered a TGI in [20] of 0.294 µM.
